From US11014915B2, “Selective estrogen receptor degrader” (SUN PHARMA ADVANCED RESEARCH COMPANY LIMITED, priority 2019, dated 2021) come the findings set out here.

Molecules are shown by their SMILES.

The target in test [1] is T1, ER-α in MCF-7 cells harboring ER wild type (Homo sapiens, UniProt P03372).
T1 construct: evaluated in MCF-7 cells harboring ER wild type; endogenous in cells; host or cells: MCF-7
T1 sequence (P03372 1-595): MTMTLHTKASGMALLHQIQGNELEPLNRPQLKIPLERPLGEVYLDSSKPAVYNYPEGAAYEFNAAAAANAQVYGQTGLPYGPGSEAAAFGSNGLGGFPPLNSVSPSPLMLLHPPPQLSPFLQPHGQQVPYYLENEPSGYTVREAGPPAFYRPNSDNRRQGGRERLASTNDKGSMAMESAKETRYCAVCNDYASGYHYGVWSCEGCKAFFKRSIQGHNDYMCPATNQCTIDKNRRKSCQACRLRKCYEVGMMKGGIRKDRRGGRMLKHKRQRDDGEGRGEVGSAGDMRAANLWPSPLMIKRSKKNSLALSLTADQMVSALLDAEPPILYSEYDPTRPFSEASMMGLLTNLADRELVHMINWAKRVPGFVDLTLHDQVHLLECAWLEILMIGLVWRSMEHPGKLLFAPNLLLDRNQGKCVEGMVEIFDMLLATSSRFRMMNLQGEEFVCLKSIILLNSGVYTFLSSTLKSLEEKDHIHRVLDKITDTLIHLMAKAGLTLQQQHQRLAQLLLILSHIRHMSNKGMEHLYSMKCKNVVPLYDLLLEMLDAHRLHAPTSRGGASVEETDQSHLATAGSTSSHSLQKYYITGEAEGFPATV
The test can be described thus: ER-α degradation (SERD) assay, MCF-7 wild type. The format is cell-based. The following applies: MCF-7 Wt, 1 nM; for % of ER-α remaining at 1 nM: 4 days, western blot, vehicle control as 100%. As to the method:
Selective Estrogen Receptor Degradation (SERD) Assay:
The SERD activity for the test compounds was evaluated in MCF-7 cells harboring ER wild type, and MCF-7 cells harboring mutant ER (WT/D538G and WT/Y537S). Briefly, cells were plated in phenol red free RPMI1640 medium supplemented with 5% charcoal stripped fetal bovine serum. The seeding density was 40000 cells/well for MCF-7 WT and MCF-7 D538G and 50000 cells/well MCF-7 Y537S in a 48-well plate. Following overnight incubation, the cells were treated with varying concentrations of test compounds (final concentration: 1000 nM to 0.01 nM, 0.1% DMSO) for 4 days. The cells were lysed using PBS supplemented with 1 mM EDTA, 0.5% Triton X-100, 5 mM NaF, 6 M urea, and 1× Protease inhibitor cocktail. The lysate was analyzed for ER alpha protein using western blot. For the western blot, the cell lysate (12.5-40 μg total protein) was resolved on a 10% SDS PAGE and transferred onto a PVDF membrane. The blots were blocked using 5% skim milk powder in 0.1% PBS-T for 1 hour at room temperature, followed by co-incubation with rabbit anti-human β-actin antibody and rabbit anti-human ERα antibody for 2 hours at room temperature. The blots were subsequently probed with anti-rabbit IgG-HRP conjugate as secondary antibody for 1 hour at room temperature. The blots were developed by using West Pico Super Signal Chemiluminescence substrate and the bands were processed for densitometry analysis using Image Lab software (BioRad version 6.0.0). ERα band intensity was normalized to that housekeeping protein for respective samples. The % ER remaining was calculated by normalizing against the vehicle control (as 100%).

The subject of test [2] is subcutaneous MCF7-Y537S xenografts. The test can be described thus: In-vivo efficacy in MCF7-Y537S mice xenografts. Also on record: species or system female athymic nude mice. The following applies: for % Tumor growth inhibition compared to vehicle group after 28 days: p.o., once daily. As to the method:
In-Vivo Efficacy of Compound of Formula I and Compound of Formula Ia: […]
The efficacy of the compound of Formula I and the compound of Formula Ia were evaluated in female athymic nude mice harboring subcutaneous MCF7-Y537S xenografts. Dose formulations of the compound of Formula I and the compound of Formula Ia were prepared in Tween 80 (0.4% v/v of the total volume of suspension) in 0.5% w/v carboxymethylcellulose (CMC) and administered once daily orally for 28 days. Two perpendicular diameters of tumor were measured with digital Vernier caliper. Tumor volume (V) was calculated using the following equation: V=(a^2×b)/2, where “a” is the width of the tumor (small diameter), and “b” the length (large diameter), both in millimeters. Tumors were monitored twice weekly and compared with a vehicle treated group.

Regarding `CC1=C(c2cc(F)cc(F)c2)C(c2ccc(/C=C/CN3CC(CF)C3)cc2)Oc2ccc(O)cc21` (racemic) [Compound 2, 3-(3,5-difluorophenyl)-2-[4-[(E)-3-[3-(fluoromethyl)azetidin-1-yl]prop-1-enyl]phenyl]-4-methyl-2H-chromen-6-ol], in test [1], the “SERD activity (in words)” value is on record as “complete loss of the SERD activity” and the “% of ER-α remaining at 1 nM” value stood at 100%.

For the molecule `CC1=C(c2cc(F)cc(F)c2)C(c2ccc(/C=C/CN3CCC(CF)CC3)cc2)Oc2cc(O)ccc21` (racemic) [Compound 3, 3-(3,5-difluorophenyl)-2-{4-[(E)-3-(4-fluoromethylpiperidin-1-yl)propenyl]phenyl}-4-methyl-2H-chromen-7-ol], the “SERD activity (in words)” value in test [1] is on record as “negligible SERD activity”. Still for that read-out and setting: in the case of `CC1=C(c2cc(F)cc(F)c2)C(c2ccc(/C=C/CN3CC[C@@H](CF)C3)cc2)Oc2cc(O)ccc21` (mixture of isomers) [Compound 4, 3-(3,5-difluorophenyl)-2-[4-[(E)-3-[(3R)-3-(fluoromethyl)pyrrolidin-1-yl]prop-1-enyl]phenyl]-4-methyl-2H-chromen-7-ol] it was “negligible SERD activity”. On to `CC1=C(c2cc(F)cc(F)c2)C(c2ccc(/C=C/CN3CC[C@@H](C)C3)cc2)Oc2cc(O)ccc21` (mixture of isomers) [Compound 5, 3-(3,5-difluorophenyl)-4-methyl-2-[4-[(E)-3-[(3R)-3-methylpyrrolidin-1-yl]prop-1-enyl]phenyl]-2H-chromen-7-ol], for which the “SERD activity (in words)” value in test [1] is listed as “negligible SERD activity”. Turning to `CC1=C(c2cc(F)cc(F)c2)C(c2ccc(/C=C\CN3CC(CF)C3)cc2)Oc2cc(O)ccc21` (racemic) [Compound 6, 3-(3,5-difluorophenyl)-2-{4-[(Z)-3-(3-fluoromethylazetidin-1-yl)propenyl]phenyl}-4-methyl-2H-chromen-7-ol], in test [1], the “SERD activity (in words)” value is “very negligible SERD activity” and the “% of ER-α remaining at 1 nM” value amounted to 80.8%. For `CC1=C(c2cc(F)cc(F)c2)C(c2ccc(C#CCN3CC(CF)C3)cc2)Oc2cc(O)ccc21` (racemic) [Compound 7, 3-(3,5-difluorophenyl)-2-[4-[3-[3-(fluoromethyl)azetidin-1-yl]prop-1-ynyl]phenyl]-4-methyl-2H-chromen-7-ol], in that order: “complete loss of SERD activity” and 100%. On to `CC1=C(c2cc(F)cc(F)c2)C(c2ccc(/C=C/CN3CC(CF)C3)cc2)Oc2cc(O)ccc21` (racemic) [Formula I, 3-(3,5-difluorophenyl)-2-[4-[(E)-3-[3-(fluoromethyl)azetidin-1-yl]prop-1-enyl]phenyl]-4-methyl-2H-chromen-7-ol], for which the “% Tumor growth inhibition compared to vehicle group after 28 days” value is 46% in test [2] (50 mg/kg) and 57% in test [2] (100 mg/kg). In addition, the “Tumor growth compared to the vehicle group (in words)” value in test [2] (once daily orally for 28 days) is recorded as “significant reduction in the tumor growth”.
